Source: ChEMBL document CHEMBL1201862, “PubChem BioAssay data set” (2004)
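Five compound concentrations were applied to cells in 96-well plates for 48 hours; endpoints were derived by simple linear interpolation of the resulting dose-response curve. GI50: concentration for 50% inhibition of growth.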 Active and inactive are the calls of the source. Rule as the data show it: active = GI50 up to about 1.1 µM and inactive = higher.

Columns and labels:
Test in all cases: DTP human tumour cell line panel, 48 h
786-0 = test system: 786-0
A498 = test system: A498
A549 = test system: A549
ACHN = test system: ACHN
BT-549 = test system: BT-549
CAKI-1 = test system: CAKI-1
CCRF-CEM = test system: CCRF-CEM
COLO 205 = test system: COLO 205
EKVX = test system: EKVX
HCC 2998 = test system: HCC 2998
HCT-116 = test system: HCT-116
HCT-15 = test system: HCT-15
HL-60 = test system: HL-60
HOP-62 = test system: HOP-62
HOP-92 = test system: HOP-92
HT-29 = test system: HT-29
Hs-578T = test system: Hs-578T
IGROV-1 = test system: IGROV-1
K562 = test system: K562
KM12 = test system: KM12
LOX IMVI = test system: LOX IMVI
M14 = test system: M14
MCF7 = test system: MCF7
MDA-MB-231 = test system: MDA-MB-231
MDA-MB-435 = test system: MDA-MB-435
MDA-N = test system: MDA-N
Malme-3M = test system: Malme-3M
NCI-H226 = test system: NCI-H226
NCI-H23 = test system: NCI-H23
NCI-H460 = test system: NCI-H460
NCI-H522 = test system: NCI-H522
NCI/ADR-RES = test system: NCI/ADR-RES
OVCAR-3 = test system: OVCAR-3
OVCAR-4 = test system: OVCAR-4
OVCAR-5 = test system: OVCAR-5
OVCAR-8 = test system: OVCAR-8
PC-3 = test system: PC-3
RPMI-8226 = test system: RPMI-8226
RXF 393 = test system: RXF 393
SF-268 = test system: SF-268
SF-295 = test system: SF-295
SF-539 = test system: SF-539
SK-MEL-28 = test system: SK-MEL-28
SK-MEL-2 = test system: SK-MEL-2
SK-MEL-5 = test system: SK-MEL-5
SK-OV-3 = test system: SK-OV-3
SN12C = test system: SN12C
SNB-19 = test system: SNB-19
SNB-75 = test system: SNB-75
SR = test system: SR
SW-620 = test system: SW-620
T47D = test system: T47D
TK-10 = test system: TK-10
U-251 = test system: U-251
UACC-257 = test system: UACC-257
UACC-62 = test system: UACC-62
UO-31 = test system: UO-31
DU-145 = test system: DU-145
MOLT-4 = test system: MOLT-4

Measured: GI50

O=C(O)c1ccc(Cc2ccccc2C(=O)O)cc1
> 100 µM: HCT-15
inactive: 786-0 > 100 µM | A498 > 100 µM | A549 > 100 µM | ACHN > 100 µM | BT-549 > 100 µM | CAKI-1 > 100 µM | CCRF-CEM > 100 µM | COLO 205 > 100 µM | EKVX > 100 µM | HCC 2998 > 100 µM | HCT-116 > 100 µM | HL-60 > 100 µM | HOP-62 > 100 µM | HOP-92 > 100 µM | HT-29 > 100 µM | Hs-578T > 100 µM | IGROV-1 > 100 µM | K562 > 100 µM | KM12 > 100 µM | LOX IMVI > 100 µM | M14 > 100 µM | MCF7 > 100 µM | MDA-MB-231 > 100 µM | MDA-MB-435 > 100 µM | MDA-N > 100 µM | Malme-3M > 100 µM | NCI-H226 > 100 µM | NCI-H23 > 100 µM | NCI-H460 > 100 µM | NCI-H522 > 100 µM | NCI/ADR-RES > 100 µM | OVCAR-3 > 100 µM | OVCAR-4 > 100 µM | OVCAR-5 > 100 µM | OVCAR-8 > 100 µM | PC-3 > 100 µM | RPMI-8226 > 100 µM | RXF 393 > 100 µM | SF-268 > 100 µM | SF-295 > 100 µM | SF-539 > 100 µM | SK-MEL-28 > 100 µM | SK-MEL-2 > 100 µM | SK-MEL-5 > 100 µM | SK-OV-3 > 100 µM | SN12C > 100 µM | SNB-19 > 100 µM | SNB-75 49.5 µM | SR > 100 µM | SW-620 > 100 µM | T47D > 100 µM | TK-10 > 100 µM | U-251 > 100 µM | UACC-257 > 100 µM | UACC-62 > 100 µM | UO-31 > 100 µM

O=c1oc2ccccc2c2nc3ccccc3cc12
> 100 µM: HCT-15
inactive: 786-0 28.2 µM | A498 33 µM | A549 99.8 µM | ACHN 31 µM | BT-549 51.2 µM | CAKI-1 33.8 µM | CCRF-CEM > 100 µM | COLO 205 > 100 µM | DU-145 > 100 µM | EKVX 79.8 µM | HCC 2998 72.1 µM | HCT-116 40.2 µM | HL-60 > 100 µM | HOP-92 31.3 µM | HT-29 99.5 µM | Hs-578T 25.9 µM | IGROV-1 35 µM | K562 > 100 µM | KM12 > 100 µM | M14 > 100 µM | MDA-MB-231 23 µM | MDA-MB-435 > 100 µM | MDA-N > 100 µM | MOLT-4 > 100 µM | Malme-3M > 100 µM | NCI-H226 37.4 µM | NCI-H23 > 100 µM | NCI-H460 37.8 µM | NCI-H522 46.2 µM | NCI/ADR-RES 97.7 µM | OVCAR-4 22.1 µM | OVCAR-5 > 100 µM | OVCAR-8 46.7 µM | PC-3 56.2 µM | RPMI-8226 > 100 µM | RXF 393 29.2 µM | SF-268 > 10 µM | SF-295 34.8 µM | SF-539 11.6 µM | SK-MEL-28 > 100 µM | SK-MEL-2 > 100 µM | SK-MEL-5 > 100 µM | SK-OV-3 51.9 µM | SN12C 99.1 µM | SNB-19 23.3 µM | SR > 100 µM | SW-620 > 100 µM | T47D > 100 µM | TK-10 58.7 µM | U-251 30.1 µM | UACC-257 96.6 µM | UACC-62 35.3 µM | UO-31 34.8 µM

Cc1ccc(S(=O)(=O)NC(=O)NC(C(=O)O)C(C)O)cc1 (stereo not drawn)
inactive: 786-0 > 100 µM | A549 > 100 µM | ACHN > 100 µM | BT-549 > 100 µM | CCRF-CEM > 100 µM | COLO 205 > 100 µM | DU-145 > 100 µM | HCT-116 > 100 µM | HL-60 > 100 µM | HOP-62 > 100 µM | HOP-92 > 100 µM | HT-29 > 100 µM | Hs-578T > 100 µM | IGROV-1 > 100 µM | K562 > 100 µM | KM12 > 100 µM | LOX IMVI > 100 µM | M14 > 100 µM | MCF7 > 100 µM | MDA-MB-231 > 100 µM | MDA-N > 100 µM | MOLT-4 > 100 µM | Malme-3M > 100 µM | NCI-H23 > 100 µM | NCI-H460 > 100 µM | NCI-H522 > 100 µM | NCI/ADR-RES > 100 µM | OVCAR-4 > 100 µM | OVCAR-5 > 100 µM | OVCAR-8 > 100 µM | PC-3 > 100 µM | RPMI-8226 > 100 µM | RXF 393 > 100 µM | SF-268 > 100 µM | SF-295 > 100 µM | SF-539 > 100 µM | SK-MEL-28 > 100 µM | SK-MEL-2 > 100 µM | SK-MEL-5 > 100 µM | SK-OV-3 > 100 µM | SN12C > 100 µM | SNB-19 > 100 µM | SNB-75 33.3 µM | SR > 100 µM | SW-620 > 100 µM | T47D > 100 µM | TK-10 > 100 µM | U-251 > 100 µM | UACC-257 > 100 µM | UACC-62 > 100 µM | UO-31 > 100 µM
> 100 µM: HCT-15

N=c1oc2ccc3ccccc3c2cc1C(N)=O
58.1 µM: HCT-15
inactive: 786-0 34 µM | A498 43.7 µM | A549 64.6 µM | ACHN 24.9 µM | BT-549 89.7 µM | CAKI-1 43.5 µM | CCRF-CEM 35.9 µM | COLO 205 48.6 µM | DU-145 71 µM | HCC 2998 49.3 µM | HCT-116 36.9 µM | HL-60 39.2 µM | HOP-62 48.3 µM | HOP-92 53 µM | HT-29 38.7 µM | Hs-578T 15.6 µM | IGROV-1 21.6 µM | KM12 16.7 µM | LOX IMVI 31.2 µM | M14 55.5 µM | MDA-MB-231 25.9 µM | MDA-MB-435 53.6 µM | MDA-N 37.1 µM | MOLT-4 48.6 µM | NCI-H226 15.3 µM | NCI-H23 48.6 µM | NCI-H460 46.3 µM | NCI/ADR-RES 35.5 µM | OVCAR-3 72.9 µM | OVCAR-4 58.6 µM | OVCAR-5 > 100 µM | OVCAR-8 80.5 µM | PC-3 18.7 µM | RPMI-8226 > 100 µM | RXF 393 > 100 µM | SF-268 31.4 µM | SK-MEL-28 44.5 µM | SK-MEL-2 19.4 µM | SK-MEL-5 46.1 µM | SK-OV-3 96.2 µM | SN12C 39.8 µM | SNB-19 25.1 µM | SNB-75 71.9 µM | SR 34 µM | SW-620 44 µM | T47D 22.6 µM | U-251 94.6 µM | UACC-257 > 100 µM | UACC-62 28 µM
